Assays:
delta-6 desaturase (D6D) [1] = target: T1, delta-6 desaturase (D6D) (Mus musculus, UniProt Q9Z0R9); conditions: cited from earlier work
T1 construct: host or cells: endogenous enzyme of the dosed animal
T1 sequence (Q9Z0R9 1-444): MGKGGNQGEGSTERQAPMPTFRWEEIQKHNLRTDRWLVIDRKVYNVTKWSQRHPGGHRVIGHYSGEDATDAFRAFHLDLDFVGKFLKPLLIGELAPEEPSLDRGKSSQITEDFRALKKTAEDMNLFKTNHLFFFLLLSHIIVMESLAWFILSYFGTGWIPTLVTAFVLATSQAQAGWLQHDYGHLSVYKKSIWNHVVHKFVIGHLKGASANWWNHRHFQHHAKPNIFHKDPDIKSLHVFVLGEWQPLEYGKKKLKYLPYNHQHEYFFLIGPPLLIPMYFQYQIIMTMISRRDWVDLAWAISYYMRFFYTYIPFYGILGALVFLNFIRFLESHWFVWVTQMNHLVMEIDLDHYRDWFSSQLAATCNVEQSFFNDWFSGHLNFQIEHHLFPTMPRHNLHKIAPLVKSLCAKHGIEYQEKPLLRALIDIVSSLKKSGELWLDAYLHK

tissue AA/LA ratios = conditions: cited from earlier work
leptin-deficient ob mice = test: ob/ob mice (hyperphagic obesity) on normal diet treated 4 weeks; format: in vivo
Method: (§1) To assess the effects of D6D inhibition on structures and processes related to cardiometabolic diseases and disorders, the following experiments were conducted. Animal studies have reported evidence of increased D6D activity in rodent models of CMD (e.g., increase in AA/LA in tissue phospholipids), making them reasonable models for studying the role of D6D in its pathogenesis. To probe the effect of D6D directly, the compound SC-26196, a selective D6D inhibitor was orally administered by admixing the SC-26196 in the food mixtures of the rodent models of CMD at a dosage of about 100 mg/kg/day for four weeks. The rodent models of CMD used in these experiments included a murine model of hyperphagic obesity (leptin-deficient ob mice) and a diet-induced insulin resistance model (normal C57BI/6 mice fed a high-fat “Western” diet) for 8 weeks prior to participation in any experiments.
Initially, the effects of D6D inhibition in conjunction with a normal diet were assessed. 4 mo old ob/ob mice were administered the selective D6D inhibitor SC-26196 (100 mg/kg/d mixed in chow) for 4 weeks (ob/ob+D6D−; n=12). The ob mice treated with SC-26196 for four weeks (ob+SC) were compared to untreated ob mice (ob) and normal C57BI/6 mice (BI/6). FIGS. 3A-C summarizes the results of this comparison. […] As summarized in FIG. 7, treatment with SC-26196 normalized responses to a glucose tolerance test, decreased serum insulin, and reduced hepatic macrophage (MΦ) content and ser-307 phosphorylation of IRS-1, the canonical cellular mechanism of hepatic insulin resistance resulting from inflammatory signaling. As summarized in FIGS. 8A and 8B, treatment with SC-26196 reduced the hepatic PC/PE ratio in the treated ob mice. FIG. 9 illustrates that SC-26196 treatment normalized the cardiac phospholipid/cardiolipin composition in the treated ob mice.

[2] = cited from earlier work
[3] = target: T2, microsomal triglyceride transfer protein (MTP) (Bos taurus, UniProt P55156); test: MTP activity, purified bovine MTP; format: biochemical; conditions: relatively weak potency
T2 sequence (P55156 12-887): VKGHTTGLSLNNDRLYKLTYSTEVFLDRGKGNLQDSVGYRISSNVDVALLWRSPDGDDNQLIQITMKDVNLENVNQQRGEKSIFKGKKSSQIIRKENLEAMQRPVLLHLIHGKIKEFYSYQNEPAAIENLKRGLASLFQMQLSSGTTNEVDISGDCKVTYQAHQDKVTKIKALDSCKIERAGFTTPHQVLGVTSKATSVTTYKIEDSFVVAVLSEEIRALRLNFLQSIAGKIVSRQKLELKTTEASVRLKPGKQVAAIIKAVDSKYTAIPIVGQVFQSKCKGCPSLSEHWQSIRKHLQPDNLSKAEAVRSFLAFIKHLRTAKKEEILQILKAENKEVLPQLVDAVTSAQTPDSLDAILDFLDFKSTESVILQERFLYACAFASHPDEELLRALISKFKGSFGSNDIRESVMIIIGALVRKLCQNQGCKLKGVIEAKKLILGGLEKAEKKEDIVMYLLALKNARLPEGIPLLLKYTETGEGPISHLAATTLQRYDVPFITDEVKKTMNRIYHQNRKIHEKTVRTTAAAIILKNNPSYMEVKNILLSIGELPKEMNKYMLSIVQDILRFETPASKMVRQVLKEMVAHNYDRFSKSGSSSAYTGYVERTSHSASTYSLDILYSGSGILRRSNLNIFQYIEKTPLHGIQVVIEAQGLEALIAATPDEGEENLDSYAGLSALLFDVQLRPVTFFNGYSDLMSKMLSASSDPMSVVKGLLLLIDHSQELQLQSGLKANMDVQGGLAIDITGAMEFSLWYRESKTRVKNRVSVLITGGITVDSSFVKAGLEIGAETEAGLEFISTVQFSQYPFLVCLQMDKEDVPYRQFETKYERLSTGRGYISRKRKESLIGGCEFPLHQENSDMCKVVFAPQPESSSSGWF
T2 sequence (P05307 21-510 partner): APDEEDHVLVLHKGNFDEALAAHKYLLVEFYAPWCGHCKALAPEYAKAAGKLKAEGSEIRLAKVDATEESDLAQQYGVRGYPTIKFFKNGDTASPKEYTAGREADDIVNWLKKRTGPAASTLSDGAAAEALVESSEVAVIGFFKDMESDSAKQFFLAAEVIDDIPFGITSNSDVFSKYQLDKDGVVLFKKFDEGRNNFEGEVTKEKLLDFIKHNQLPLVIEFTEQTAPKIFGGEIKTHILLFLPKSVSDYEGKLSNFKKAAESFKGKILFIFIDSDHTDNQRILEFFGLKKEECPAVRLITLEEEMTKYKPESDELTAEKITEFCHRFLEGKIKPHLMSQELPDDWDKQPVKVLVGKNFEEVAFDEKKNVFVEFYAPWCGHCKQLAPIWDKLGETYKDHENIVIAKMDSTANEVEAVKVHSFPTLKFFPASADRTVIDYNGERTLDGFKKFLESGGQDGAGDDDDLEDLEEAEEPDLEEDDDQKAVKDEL

[4] = Liver toxicity on chronic administration; format: in vivo; conditions: 100 mpk/d for 4 wks, all animal models tested
[5] = target: T3, microsomal triglyceride transfer protein (MTP) (Rattus norvegicus, UniProt D4A1W8); test: MTP activity, rat liver microsomal extracts; format: biochemical; conditions: rat liver microsomal extracts at 100 mpk dosing in vivo; relatively weak potency
T3 construct: rat liver microsomal extracts; from tissue; host or cells: rat liver microsomal extracts
T3 sequence (D4A1W8 22-896): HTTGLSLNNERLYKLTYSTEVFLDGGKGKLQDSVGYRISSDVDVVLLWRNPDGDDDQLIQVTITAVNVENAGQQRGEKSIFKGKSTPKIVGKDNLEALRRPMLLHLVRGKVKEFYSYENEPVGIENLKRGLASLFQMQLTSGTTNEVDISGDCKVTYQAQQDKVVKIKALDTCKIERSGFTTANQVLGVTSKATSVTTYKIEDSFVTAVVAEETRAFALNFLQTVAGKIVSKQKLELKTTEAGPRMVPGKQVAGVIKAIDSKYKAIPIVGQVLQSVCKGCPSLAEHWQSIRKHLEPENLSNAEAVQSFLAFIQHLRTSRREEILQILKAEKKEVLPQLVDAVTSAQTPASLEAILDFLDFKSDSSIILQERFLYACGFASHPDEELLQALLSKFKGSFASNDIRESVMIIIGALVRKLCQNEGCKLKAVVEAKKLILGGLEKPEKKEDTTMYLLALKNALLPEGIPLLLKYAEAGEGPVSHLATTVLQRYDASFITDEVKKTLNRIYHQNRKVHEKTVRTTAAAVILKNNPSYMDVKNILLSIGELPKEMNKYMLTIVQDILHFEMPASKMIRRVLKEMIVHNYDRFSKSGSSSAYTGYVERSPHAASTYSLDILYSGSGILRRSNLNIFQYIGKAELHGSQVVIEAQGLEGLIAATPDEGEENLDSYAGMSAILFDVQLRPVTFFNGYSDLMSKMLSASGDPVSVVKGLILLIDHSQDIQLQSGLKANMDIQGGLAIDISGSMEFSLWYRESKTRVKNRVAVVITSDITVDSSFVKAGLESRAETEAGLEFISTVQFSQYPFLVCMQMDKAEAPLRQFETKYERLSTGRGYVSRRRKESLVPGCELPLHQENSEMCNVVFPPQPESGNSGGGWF
T3 sequence (P04785 20-509 partner): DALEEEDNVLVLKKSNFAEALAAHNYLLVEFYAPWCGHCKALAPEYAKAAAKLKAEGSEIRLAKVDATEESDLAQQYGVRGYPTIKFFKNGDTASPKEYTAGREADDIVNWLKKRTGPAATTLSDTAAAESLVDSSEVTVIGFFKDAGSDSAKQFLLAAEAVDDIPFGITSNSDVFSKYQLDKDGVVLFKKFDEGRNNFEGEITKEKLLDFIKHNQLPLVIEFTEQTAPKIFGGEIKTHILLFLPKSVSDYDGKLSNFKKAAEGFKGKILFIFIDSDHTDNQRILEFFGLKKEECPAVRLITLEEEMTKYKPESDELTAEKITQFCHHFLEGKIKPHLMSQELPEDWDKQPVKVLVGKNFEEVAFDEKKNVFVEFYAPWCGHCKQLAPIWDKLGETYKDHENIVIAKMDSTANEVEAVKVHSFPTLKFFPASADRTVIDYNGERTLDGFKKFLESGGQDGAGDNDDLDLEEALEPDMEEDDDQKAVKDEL

[6] = system: cardiac dysfunction, hypertrophy, fibrosis; test: Thoracic aortic banding (TAC) or chronic hypertension (HF) model; format: in vivo, mice
Text: (§2) Mice lacking LDL receptors (LDLR −/−) were similarly maintained on a high fat/sucrose Western diet and treated with SC-26196 in a similar manner as described above. As summarized in FIG. 5, SC-26196 treatment ameliorated hyperlipidemia and atherosclerosis in mice lacking LDL receptors fed the Western diet. The treatment also attenuated cardiac dysfunction, pathologic hypertrophy and fibrosis in mice subjected to thoracic aortic banding (TAC) or chronic hypertension (HF), as summarized in FIG. 6.

LDLR -/- mice = test: LDL receptor-lacking mice on Western diet; format: in vivo
Text: as §2

delta-6 desaturase (D6D) [7] = conditions: cited from earlier work
ob mice = ob mice on high fat/sucrose Western diet; format: in vivo
Method: as §1
To assess the interaction of a high-fat Western diet with the effects of D6D inhibition, the following experiment was conducted. The ob mice and the BI/6 mice were maintained on a high fat/sucrose Western diet and part of each group was treated with SC-26196 in a similar manner as described above. The treated and untreated ob and BI/6 mice were compared. FIGS. 4A-4B summarize the results of this experiment.

[8] = 100 mpk/d mixed in mouse chow, 4 weeks
[9] = ob mice, normal diet, 100 mg/kg/d
[10] = ob/ob mice, cardiac, 100 mg/kg/d, vs lean C57BI/6

For `N#CC(CCCN1CCN(/N=C/c2cccnc2)CC1)(c1ccccc1)c1ccccc1` [SC-26196, (E)-2,2-Diphenyl-5-{4-[(pyridin-3-yl-methylene)amino]piperazin-1-yl}pentanenitrile], the “inhibition of D6D enzymatic activity in vivo” value (delta-6 desaturase (D6D) [1]; 100 mg/kg b.i.d., i.g. over a 24 hr period) is listed as “about 65%”, the oral activity (delta-6 desaturase (D6D) [1]; at 100 mpk) is listed as “oral activity” and the “effect in a model of acute inflammation” value (tissue AA/LA ratios; [8]) is listed as “protective effects”. The “tissue AA/LA ratios” value (tissue AA/LA ratios; [8]) was “reduced”, the “reversing elevations of tissue AA/LA associated with acute inflammation” value (tissue AA/LA ratios; lower doses, 50 and 75 mpk/d, 4 wks) was “ineffective” and the “ser-307 phosphorylation of IRS-1” value (leptin-deficient ob mice; ob mice, liver, normal diet, 100 mg/kg/d) was “reduced”. The cardiac oxidative stress (leptin-deficient ob mice; [9]) was “reduced”, the cardiac phospholipid/cardiolipin composition (leptin-deficient ob mice; [9]) was “normalized” and the “eicosanoid species in heart tissue” value (leptin-deficient ob mice; [9]) was “abolished significant increases”. The “eicosanoid species in serum” value (leptin-deficient ob mice; [9]) was “abolished significant increases”, the “hepatic PC/PE ratio” value (leptin-deficient ob mice; [9]) was “reduced” and the hepatic macrophage content (leptin-deficient ob mice; [9]) was “reduced”. For the same compound, the “responses to a glucose tolerance test” value (leptin-deficient ob mice; [9]) was “normalized”, the serum insulin (leptin-deficient ob mice; [9]) was “decreased” and the “phospholipid AA/LA ratio of serum, liver, heart and muscle tissue” value (leptin-deficient ob mice; ob mice, normal diet, 100 mg/kg/d in chow) was “reversed significant elevations”. For the same compound, the cardiac cardiolipin profile (leptin-deficient ob mice; ob/ob mice, 100 mg/kg/d in chow, vs lean C57BI/6) was “to levels similar to those in lean age-matched control mice”, the membrane peroxidizability index (leptin-deficient ob mice; [10]) was “to levels similar to those in lean age-matched control mice” and the “phospholipid D6D activity index (20:4/18:2 ratio)” value (leptin-deficient ob mice; [10]) was “to levels similar to those in lean age-matched control mice”. For the same compound, the “phospholipid DHA content” value (leptin-deficient ob mice; [10]) was “to levels similar to those in lean age-matched control mice”, the Peak plasma levels ([2]; 100 mpk ig dosing) was 2 µM and the half-life ([2]; 100 mpk ig dosing) was 1.2 h. The bioavailability ([2]; 100 mpk ig, based on AUC calculations) was “about 60%”, the MTP activity [3] was “inhibited MTP activity” and the hepatomegaly [4] was “significant hepatomegaly”. For the same compound, the MTP activity [5] was “inhibited MTP activity”, the cardiac dysfunction [6] was “attenuated” and the fibrosis [6] was “attenuated”. The pathologic hypertrophy [6] was “attenuated”, the atherosclerosis (LDLR -/- mice) was “ameliorated” and the hyperlipidemia (LDLR -/- mice) was “ameliorated”. The “selectivity for D6D over other desaturase enzymes” value (delta-6 desaturase (D6D) [7]) was “potent selectivity”, the IC50 (delta-6 desaturase (D6D) [7]; in vitro) was 200 nM and the fasting blood glucose (ob mice) was “reduced”. For the same compound, the “responses to a glucose tolerance test” value (ob mice) was “normalized” and the serum insulin levels (ob mice) was “normalized 8-fold elevations”.

— patent US8952012B2, “Inhibition of delta-6 desaturase for the treatment of cardiometabolic disease” (Colorado State University Research Foundation, priority 2012, dated 2015)
